In ChEMBL document CHEMBL3132784, “Synthesis and biological evaluation of new conformationally restricted S-DABO hybrids as non-nucleoside inhibitors of HIV-1 reverse transcriptase” (Medchemcomm, 2014):

Key:
[1] = Selectivity index, ratio of CC50 for human MT4 cells to EC50 for wild-type HIV-1 3B infected in human MT4 cells; type: toxicity, cell-based; conditions: read-out: Ratio CC50/EC50
[2] = Cytotoxicity against mock-infected human MT4 cells assessed as decrease in cell viability measured 5 days post-infection by MTT assay; type: cell-based
[3] = test system: Human immunodeficiency virus 2; test: Antiviral activity against HIV-2 ROD infected in human MT4 cells assessed as protection against virus-induced cytopathic effect measured 5 days post-infection by MTT assay; type: functional, organism-based; conditions: Human immunodeficiency virus 2, ROD, MT4, 120 h
[4] = test system: Human immunodeficiency virus 1; test: Antiviral activity against HIV-1 RES056 harboring RT K103N+Y181C double mutant infected in human MT4 cells assessed as protection against virus-induced cytopathic effect measured 5 days post-infection by MTT assay; type: functional, organism-based; conditions: Human immunodeficiency virus 1, RES056, MT4, 120 h
[5] = test system: Human immunodeficiency virus 1; test: Antiviral activity against wild-type HIV-1 3B infected in human MT4 cells assessed as protection against virus-induced cytopathic effect measured 5 days post-infection by MTT assay; type: functional, organism-based; conditions: Human immunodeficiency virus 1, 3B, MT4, 120 h
[6] = target: Human immunodeficiency virus type 1 reverse transcriptase (Human immunodeficiency virus 1, UniProt Q72547); test: Inhibition of HIV-1 wild type recombinant reverse transcriptase p66/p51 assessed as RNA-DNA heteroduplex formation using poly(rA) template/oligo(dT)16 primer incubated prior to enzyme addition by spectrofluorometer analysis

| Compound | selectivity ratio [1] | CC50 at 120 h [2] [µM] | EC50 [3] [µM] | EC50 [4] [µM] | EC50 [5] [µM] | IC50 [6] [µM] |
| --- | --- | --- | --- | --- | --- | --- |
| COc1ccc(CSc2nc(C(C#N)c3cccc(F)c3)c(C)c(=O)[nH]2)cc1 (stereo not drawn) | 6 | 173 | > 173 | > 173 | 29.1 | – |
| COc1ccc(CSc2nc(C(C#N)c3ccc(F)cc3)c(C)c(=O)[nH]2)cc1 (stereo not drawn) | < 1 | 95.2 | > 95.2 | – | > 95.2 | – |
| COc1ccc(CSc2nc(C(C#N)c3ccccc3Cl)c(C)c(=O)[nH]2)cc1 (stereo not drawn) | 239 | 116 | > 116 | > 116 | 0.49 | 0.51 |
| COc1ccc(CSc2nc(C(C#N)c3cccc(Cl)c3)c(C)c(=O)[nH]2)cc1 (stereo not drawn) | 9 | 161 | > 161 | > 161 | 18 | – |
| COc1ccc(CSc2nc(C(C#N)c3ccc(Cl)cc3)c(C)c(=O)[nH]2)cc1 (stereo not drawn) | < 1 | 28.9 | > 28.9 | – | > 28.9 | – |
| COc1ccc(CSc2nc(C(C#N)c3ccccc3Br)c(C)c(=O)[nH]2)cc1 (stereo not drawn) | 208 | 86.7 | > 86.7 | > 86.7 | 0.42 | 1.55 |
| COc1ccc(CSc2nc(C(C#N)c3cccc(Br)c3)c(C)c(=O)[nH]2)cc1 (stereo not drawn) | 10 | 156 | > 156 | > 156 | 16.3 | – |
| CCc1c(C(C#N)c2ccccc2F)nc(SCc2ccc(OC)cc2)[nH]c1=O (stereo not drawn) | 66 | 109 | > 109 | > 109 | 1.66 | – |
| CCc1c(C(C#N)c2cccc(F)c2)nc(SCc2ccc(OC)cc2)[nH]c1=O (stereo not drawn) | 24 | 173 | > 173 | > 173 | 7.08 | – |
| CCc1c(C(C#N)c2ccccc2Cl)nc(SCc2ccc(OC)cc2)[nH]c1=O (stereo not drawn) | 57 | 76.9 | > 76.9 | > 76.9 | 1.34 | – |
| CCc1c(C(C#N)c2ccc(Br)cc2)nc(SCc2ccc(OC)cc2)[nH]c1=O (stereo not drawn) | < 1 | 23.9 | > 23.9 | – | > 23.9 | – |
| COc1ccc(CSc2nc(C(C#N)c3ccc(F)cc3)c(C(C)C)c(=O)[nH]2)cc1 (stereo not drawn) | 7 | 137 | > 137 | > 137 | 20.4 | – |
| COc1ccc(CSc2nc(C(C#N)c3ccccc3Cl)c(C(C)C)c(=O)[nH]2)cc1 (stereo not drawn) | 7 | 27.4 | > 27.4 | > 27.4 | 3.91 | – |
| COc1ccc(CSc2nc(C(C#N)c3ccc(Cl)cc3)c(C(C)C)c(=O)[nH]2)cc1 (stereo not drawn) | ≤ 2 | 85.2 | > 85.2 | > 85.2 | > 40.7 | – |
| COc1ccc(CSc2nc(C(C#N)c3ccccc3Br)c(C(C)C)c(=O)[nH]2)cc1 (stereo not drawn) | 6 | 26.7 | > 26.7 | > 26.7 | 4.46 | – |
| COc1ccc(CSc2nc(C(C#N)c3cccc(Br)c3)c(C(C)C)c(=O)[nH]2)cc1 (stereo not drawn) | 21 | 119 | > 119 | > 119 | 5.72 | – |
| COc1ccc(CSc2nc(C(C#N)c3c(Cl)cccc3Cl)c(C)c(=O)[nH]2)cc1 (stereo not drawn) | 252 | 48.8 | > 48.8 | > 48.8 | 0.19 | 0.23 |
| COc1ccc(CSc2nc(C(C#N)c3ccc(Br)cc3F)c(C)c(=O)[nH]2)cc1 (stereo not drawn) | < 1 | 22.5 | > 22.5 | – | > 22.5 | – |
| COc1ccc(CSc2nc(C(C#N)c3c(F)cccc3Cl)c(C)c(=O)[nH]2)cc1 (stereo not drawn) | 548 | 50.1 | > 50.1 | > 50.1 | 0.091 | 0.17 |
| COc1ccc(CSc2nc(C(C#N)c3ccc(F)cc3F)c(C)c(=O)[nH]2)cc1 (stereo not drawn) | 8 | 157 | > 157 | > 157 | 20.7 | – |
| COc1ccc(CSc2nc(C(C#N)c3cc(F)cc(F)c3)c(C)c(=O)[nH]2)cc1 (stereo not drawn) | 7 | 154 | > 154 | > 154 | 21.3 | – |
| CC(C)Nc1cccnc1N1CCN(C(=O)c2cc3cc(NS(C)(=O)=O)ccc3[nH]2)CC1 [DELAVIRDINE] | > 338 | > 36.2 | – | > 36.2 | – | – |
| O=C1Nc2ccc(Cl)cc2[C@@](C#CC2CC2)(C(F)(F)F)O1 [EFAVIRENZ] | – | > 6.34 | – | – | – | – |
| Cc1ccnc2c1NC(=O)c1cccnc1N2C1CC1 [NEVIRAPINE] | – | > 15 | – | – | – | – |
| Nc1ccn([C@H]2CC[C@@H](CO)O2)c(=O)n1 [ZALCITABINE] | > 169 | > 94.7 | 1.61 | – | 0.57 | – |
| Cc1cn([C@H]2C[C@H](N=[N+]=[N-])[C@@H](CO)O2)c(=O)[nH]c1=O [ZIDOVUDINE] | > 14400 | > 93.6 | – | 0.0063 | 0.0064 | – |
